PMC10194981, “Chemosensory protein regulates the behavioural response of Frankliniella intonsa and Frankliniella occidentalis to tomato zonate spot virus–Infected pepper (Capsicum annuum)” (PLOS Pathogens, 2023)

Experiments:
FintCSP1-Lys26Ala = FintCSP1-Lys26Ala (Frankliniella intonsa, UniProt A0A891LVF4, K26A); test: Fluorescence (1-NPN) binding and competitive binding assay, FintCSP1 mutant
Procedure: (§1) The binding affinity of FintCSP1 and FoccCSP to the fluorescent probe N-phenyl-1-naphthylamine (1-NPN) was tested using a Spectramax M2 fluorescence spectrometer (Molecular Devices, USA) as reported previously. […] The 1-NPN/FintCSP1 or 1-NPN/FoccCSP mixture was excited at 280 nm, and the emission spectra were recorded at 415 nm. The binding constants (Kd) of FintCSP1 or FoccCSP to 1-NPN were calculated by Scatchard analysis using Prism 5 software (GraphPad, La Jolla, CA, USA). Assuming a protein activity of 100% and that the volatile compound binds to the protein in a 1:1 ratio at saturation, the dissociation constants (Ki) of FintCSP1 or FoccCSP for each ligand were calculated according to the IC50 (the concentration when the ligand replaces 50% of the probe) value of the volatile compounds. The Ki values were calculated according to the following equation: Ki = [IC50]/(1 + [1-NPN]/K1-NPN), where [1-NPN] is the free concentration of 1-NPN, and K1-NPN is the Kd of the 1-NPN/FintCSP1 or 1-NPN/FoccCSP.
(§2) To verify the key amino acids of FintCSP1 and FoccCSP that bind to cis-3-hexenal, six amino acid residues of FintCSP1 were mutated (Lys26Ala, Phe27Ala, Thr28Ala, Glu67Ala, Ser84Ala, and the negative control residue Val132Ala) and nine amino acid residues of FoccCSP were mutated (Lys26Ala, Phe27Ala, Thr28Ala, Thr29Ala, Tyr31Ala, Asp64Ala, Glu67Ala, Gln87Ala, and the negative control residue Val132Ala) with the Fast Mutagenesis System Kit (Transgen Biotech, Beijing, China) using the pET-30a/FintCSP1 and pET-30a/FoccCSP plasmid DNA as template, respectively. Specific primers were designed using Primer Premier 5.0 according to the instructions of the Fast Mutagenesis System Kit (S1 Table). After validation by sequencing, each recombinant variant protein was produced and purified as described above, and their binding affinity to cis-3-hexenal was measured as described above.

FintCSP1-Glu67Ala = FintCSP1-Glu67Ala (Frankliniella intonsa, UniProt A0A891LVF4, E67A); test: as above
Procedure: as §1, §2

FintCSP1-Thr28Ala = FintCSP1-Thr28Ala (Frankliniella intonsa, UniProt A0A891LVF4, T28A); test: as above
Procedure: as §1, §2

FintCSP1-Phe27Ala = FintCSP1-Phe27Ala (Frankliniella intonsa, UniProt A0A891LVF4, F27A); test: as above
Procedure: as §1, §2

[1] = target: recombinant wild-type FintCSP1 (Frankliniella intonsa, UniProt A0A891LVF4); test: Fluorescence (1-NPN) binding and competitive binding assay, wild-type FintCSP1; conditions: wild-type FintCSP1
Procedure: FintCSP1 and FoccCSP DNA were released from pEASY-T1/FintCSP1 and pEASY-T1/FoccCSP, respectively, by restriction digestion with BamHI and XhoI and cloned into the pET-30a vector (Invitrogen). The resulting construct was transformed into Transetta (DE3) Escherichia coli competent cells (Transgen). The production of recombinant FintCSP1 and FoccCSP was induced by addition of isopropyl-β-D-1-thiogalactopyranoside (IPTG, 0.2 mM) at 15°C and purified by Ni ion affinity chromatography (Sangon Biotech, Shanghai, China). The target protein was verified by 15% SDS-PAGE, and its concentration was determined with a BCA protein assay kit (Thermo Scientific, Rockford, IL, USA). The recombinant purified protein was stored at −20°C until use.
as §1

F. occidentalis = test: Y-tube olfactometer preference test; type: in vivo, Frankliniella occidentalis; conditions: dsFoccCSP-injected; vs liquid paraffin control
Procedure: F. intonsa and F. occidentalis preference tests of plant volatile cues were performed using a glass Y-tube olfactometer according to the method described by Wang et al. (2014) with minor modifications. A Y-shaped tube (1-cm inner diameter) consisted of a central tube (10 cm in length) and two arms (10 cm in length, offset by 60°) connected to two different glass odor bottles. One glass odor bottle was 50 cm in height, with a 10-cm inner diameter that contained pepper plants (14-day post-viral infection); the other glass odor bottle was 5 cm in height, with a 3-cm inner diameter for plant VOCs. The airflow in the olfactometer (200 mL/min) was filtered through activated carbon and calibrated using a flow meter at the end of each arm. To remove all visual cues, the Y-tube was positioned horizontally in a black airtight cubic box (90 cm × 60 cm × 40 cm). The tested odor sources (pepper plant VOCs) were enclosed in the odor bottles 5 min prior to each test to allow the odors to fill the arms. Thrips (2-day-old, starved for 1 h) were individually placed in the central tube and allowed to choose between the two arms. […] If the thrips had not made a choice after being placed in the straight arm for 5 min, the insect behaviour was scored as “no selection,” and it was not counted in the total data. […]

Chain of recombinant wild-type FintCSP1 (A0A891LVF4 entry or part of it): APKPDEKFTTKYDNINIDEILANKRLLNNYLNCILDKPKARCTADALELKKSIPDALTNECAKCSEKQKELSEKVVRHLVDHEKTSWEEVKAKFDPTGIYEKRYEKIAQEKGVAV
Chain of FintCSP1-Phe27Ala (A0A891LVF4 entry or part of it F27A): as the sequence (A0A891LVF4 entry or part of it) above, with F8A counted along it
Chain of FintCSP1-Lys26Ala (A0A891LVF4 entry or part of it K26A): as the sequence (A0A891LVF4 entry or part of it) above, with K7A counted along it
Chain of FintCSP1-Glu67Ala (A0A891LVF4 entry or part of it E67A): as the sequence (A0A891LVF4 entry or part of it) above, with E48A counted along it
Chain of FintCSP1-Thr28Ala (A0A891LVF4 entry or part of it T28A): as the sequence (A0A891LVF4 entry or part of it) above, with T9A counted along it

CC/C=C\CC=O [cis-3-hexenal]
IC50 (FintCSP1-Lys26Ala): > 100 µM | affinity for cis-3-hexenal (in words) (FintCSP1-Lys26Ala; FintCSP1-Lys26Ala, competitive fluorescent assay): no affinity | IC50 (FintCSP1-Glu67Ala): > 100 µM | affinity for cis-3-hexenal (in words) (FintCSP1-Glu67Ala; FintCSP1-Glu67Ala, competitive fluorescent assay): no affinity | IC50 (FintCSP1-Thr28Ala): > 100 µM | affinity for cis-3-hexenal (in words) (FintCSP1-Thr28Ala; FintCSP1-Thr28Ala, competitive fluorescent assay): no affinity | IC50 (FintCSP1-Phe27Ala): 53.5 ± 3.07 µM | Ki (FintCSP1-Phe27Ala): 41.1 ± 2.36 µM | affinity for cis-3-hexenal (in words) (FintCSP1-Phe27Ala; FintCSP1-Phe27Ala compared with wild-type FintCSP1): weaker affinity | binding affinity to FintCSP1 (in words) ([1]; competitive fluorescence binding assay, classes of Ki): moderate binding affinity | IC50 ([1]; displacement of 1-NPN, protein and 1-NPN both 2 μM, 50 mM Tris-HCl pH 7.4, read-out: IC50): 36.2 ± 1 µM | Ki ([1]; displacement of 1-NPN, protein and 1-NPN both 2 μM, pH 7.4, calculated from IC50, read-out: Ki): 28.7 ± 0.79 µM | preference of dsFoccCSP-silenced F. occidentalis (in words) (F. occidentalis): no clear preference
